Experimental data as given in paper PMC9067983, “Identification of highly selective type II kinase inhibitors with chiral peptidomimetic tails” (Journal of Enzyme Inhibition and Medicinal Chemistry, 2022).
Where a SMILES comes first, the peptide text is derived from it. [ ]: non-standard residue; d: D form. The star is where a group is joined. X1 = Cc1ccc(Nc2ncc3c(n2)N(C)C(=O)N(c2cc(C(=O)*)ccc2C)C3)cn1; Aze = O=C(O)[C@@H]1CCN1; Nva = CCC[C@H](N)C(=O)O; Ac4c = NC1(C(=O)O)CCC1; Ac3c = NC1(C(=O)O)CC1; Aib = CC(C)(N)C(=O)O

Key:
[1] = molecular target: T1, Lck (Homo sapiens, UniProt P06239); test: In vitro kinase assay (IC50); assay type: biochemical
T1 construct: purchased Reaction Biology Corp
Description: (§1) Full panel kinase profiling and kinase IC50 measurement were performed by using Reaction Biology Corp. (San Diego, USA).

[2] = molecular target: T2, c-Src (Homo sapiens, UniProt P12931); test: In vitro kinase assay (IC50); assay type: biochemical
T2 construct: purchased Reaction Biology Corp
Description: as §1

T1 sequence (P06239 whole entry): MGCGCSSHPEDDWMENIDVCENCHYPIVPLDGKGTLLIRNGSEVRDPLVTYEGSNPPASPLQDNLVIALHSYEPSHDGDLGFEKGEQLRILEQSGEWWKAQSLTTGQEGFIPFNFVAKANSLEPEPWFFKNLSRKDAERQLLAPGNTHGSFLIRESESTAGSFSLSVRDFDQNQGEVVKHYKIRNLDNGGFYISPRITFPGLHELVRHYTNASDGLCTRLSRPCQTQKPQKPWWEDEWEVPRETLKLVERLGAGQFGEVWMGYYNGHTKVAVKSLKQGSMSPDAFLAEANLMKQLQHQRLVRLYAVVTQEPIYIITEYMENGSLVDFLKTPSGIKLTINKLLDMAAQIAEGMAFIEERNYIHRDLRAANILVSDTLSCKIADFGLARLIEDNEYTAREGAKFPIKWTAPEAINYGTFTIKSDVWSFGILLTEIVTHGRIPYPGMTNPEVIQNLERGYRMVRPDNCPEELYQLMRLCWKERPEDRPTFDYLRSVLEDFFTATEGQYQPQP
T2 sequence (P12931 whole entry): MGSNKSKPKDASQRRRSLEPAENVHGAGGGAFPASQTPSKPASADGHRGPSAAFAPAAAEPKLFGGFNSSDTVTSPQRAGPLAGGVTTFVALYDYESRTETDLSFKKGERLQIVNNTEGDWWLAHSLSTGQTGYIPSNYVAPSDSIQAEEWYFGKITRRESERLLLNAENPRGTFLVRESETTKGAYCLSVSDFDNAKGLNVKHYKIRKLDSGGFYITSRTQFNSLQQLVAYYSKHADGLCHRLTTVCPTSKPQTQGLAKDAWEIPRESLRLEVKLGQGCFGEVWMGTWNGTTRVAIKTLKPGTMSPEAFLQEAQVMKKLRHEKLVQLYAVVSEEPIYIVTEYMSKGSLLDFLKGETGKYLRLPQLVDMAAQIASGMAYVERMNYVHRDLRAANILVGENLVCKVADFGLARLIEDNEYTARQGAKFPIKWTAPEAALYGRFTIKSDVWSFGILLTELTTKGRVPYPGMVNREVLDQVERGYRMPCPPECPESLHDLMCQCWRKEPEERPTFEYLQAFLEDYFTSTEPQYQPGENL

IC50 [1] [nM]	IC50 [2] [nM]	decrease of Lck/c-Src selectivity compared to 7a [1] [fold]	selectivity for Lck over c-Src [1] [fold]	SMILES
129	2080	–	–	Cc1ccc(Nc2ncc3c(n2)N(C)C(=O)N(c2cc(C(=O)N[C@H](C(=O)N4CCC[C@@H]4C(=O)NC4(C(=O)N[C@@H](CC(C)C)C(=O)N(C)C)CC4)C(C)C)ccc2C)C3)cn1 [7e, (R)-N-(1-(((S)-1-(dimethylamino)-4-methyl-1-oxopentan-2-yl)carbamoyl)cyclopropyl)-1-((4-methyl-3-(1-methyl-7-((6-methylpyridin-3-yl)amino)-2-oxo-1,4-dihydropyrimido[4,5-d]pyrimidin-3(2H)-yl)benzoyl)-L-valyl)pyrrolidine-2-carboxamide] (X1-V[dP][Ac3c]L-NMe2)
1.05	4.01	–	–	CC1=N[C@@H](CC(C)C)C(=O)N(C)c2cc(C(=O)Nc3ccc(C)c(N4Cc5cnc(Nc6ccc(C)nc6)nc5N(C)C4=O)c3)ccc21 [11m, (S)-3-isobutyl-1,5-dimethyl-N-(4-methyl-3-(1-methyl-7-((6-methylpyridin-3-yl)amino)-2-oxo-1,4-dihydropyrimido[4,5-d]pyrimidin-3(2H)-yl)phenyl)-2-oxo-2,3-dihydro-1H-benzo[e][1,4]diazepine-8-carboxamide]
302	921	> 10	–	Cc1ccc(Nc2ncc3c(n2)N(C)C(=O)N(c2cc(C(=O)N[C@H](C(=O)N4CC[C@H]4C(=O)NC(C)(C)C(=O)N[C@@H](CC(C)C)C(=O)N(C)C)C(C)C)ccc2C)C3)cn1 [7k, (S)-N-(1-(((S)-1-(dimethylamino)-4-methyl-1-oxopentan-2-yl)amino)-2-methyl-1-oxopropan-2-yl)-1-((4-methyl-3-(1-methyl-7-((6-methylpyridin-3-yl)amino)-2-oxo-1,4-dihydropyrimido[4,5-d]pyrimidin-3(2H)-yl)benzoyl)-L-valyl)azetidine-2-carboxamide] (X1-V[Aze][Aib]L-NMe2)
15.4	174	–	> 10	Cc1ccc(Nc2ncc3c(n2)N(C)C(=O)N(c2cc(C(=O)N[C@@H](CC(C)C)C(=O)N4CCC[C@H]4C(=O)NC(C)(C)C(=O)N[C@@H](CC(C)C)C(=O)N(C)C)ccc2C)C3)cn1 [7q, (S)-N-(1-(((S)-1-(dimethylamino)-4-methyl-1-oxopentan-2-yl)amino)-2-methyl-1-oxopropan-2-yl)-1-((4-methyl-3-(1-methyl-7-((6-methylpyridin-3-yl)amino)-2-oxo-1,4-dihydropyrimido[4,5-d]pyrimidin-3(2H)-yl)benzoyl)-L-leucyl)pyrrolidine-2-carboxamide] (X1-LP[Aib]L-NMe2)
155	1740	–	–	Cc1ccc(Nc2ncc3c(n2)N(C)C(=O)N(c2cc(C(=O)N[C@@H](Cc4ccccc4)C(=O)N4CCC[C@H]4C(=O)NC(C)(C)C(=O)N[C@H](C(=O)N(C)C)C(C)C)ccc2C)C3)cn1 [7l, (S)-N-(1-(((S)-1-(dimethylamino)-3-methyl-1-oxobutan-2-yl)amino)-2-methyl-1-oxopropan-2-yl)-1-((4-methyl-3-(1-methyl-7-((6-methylpyridin-3-yl)amino)-2-oxo-1,4-dihydropyrimido[4,5-d]pyrimidin-3(2H)-yl)benzoyl)-L-phenylalanyl)pyrrolidine-2-carboxamide] (X1-FP[Aib]V-NMe2)
211	735	> 10	–	Cc1ccc(Nc2ncc3c(n2)N(C)C(=O)N(c2cc(C(=O)N[C@@H](C(=O)N4CCC[C@@H]4C(=O)NC(C)(C)C(=O)N[C@H](CC(C)C)C(=O)N(C)C)C(C)C)ccc2C)C3)cn1 [7c, (R)-N-(1-(((R)-1-(dimethylamino)-4-methyl-1-oxopentan-2-yl)amino)-2-methyl-1-oxopropan-2-yl)-1-((4-methyl-3-(1-methyl-7-((6-methylpyridin-3-yl)amino)-2-oxo-1,4-dihydropyrimido[4,5-d]pyrimidin-3(2H)-yl)benzoyl)-D-valyl)pyrrolidine-2-carboxamide] (X1-[dV][dP][Aib][dL]-NMe2)
174	1140	–	–	Cc1ccc(Nc2ncc3c(n2)N(C)C(=O)N(c2cc(C(=O)N[C@H](C(=O)N4CCC[C@H]4C(=O)NC(C)(C)C(=O)NCC(=O)N(C)C)C(C)C)ccc2C)C3)cn1 [7u, (S)-N-(1-((2-(dimethylamino)-2-oxoethyl)amino)-2-methyl-1-oxopropan-2-yl)-1-((4-methyl-3-(1-methyl-7-((6-methylpyridin-3-yl)amino)-2-oxo-1,4-dihydropyrimido[4,5-d]pyrimidin-3(2H)-yl)benzoyl)-L-valyl)pyrrolidine-2-carboxamide] (X1-VP[Aib]G-NMe2)
70.8	477	–	–	CCC[C@H](NC(=O)c1ccc(C)c(N2Cc3cnc(Nc4ccc(C)nc4)nc3N(C)C2=O)c1)C(=O)N1CCC[C@H]1C(=O)NC(C)(C)C(=O)N[C@@H](CC(C)C)C(=O)N(C)C [7t, (S)-N-(1-(((S)-1-(dimethylamino)-4-methyl-1-oxopentan-2-yl)amino)-2-methyl-1-oxopropan-2-yl)-1-((S)-2-(4-methyl-3-(1-methyl-7-((6-methylpyridin-3-yl)amino)-2-oxo-1,4-dihydropyrimido[4,5-d]pyrimidin-3(2H)-yl)benzamido)pentanoyl)pyrrolidine-2-carboxamide] (X1-[Nva]P[Aib]L-NMe2)
1040	> 10000	–	–	Cc1ccc(Nc2ncc3c(n2)N(C)C(=O)N(c2cc(C(=O)N[C@H](C(=O)N4CCC[C@@H]4C(=O)NC(C)(C)C(=O)N[C@H](C(=O)N(C)C)C(C)C)C(C)C)ccc2C)C3)cn1 [7o, (R)-N-(1-(((S)-1-(dimethylamino)-3-methyl-1-oxobutan-2-yl)amino)-2-methyl-1-oxopropan-2-yl)-1-((4-methyl-3-(1-methyl-7-((6-methylpyridin-3-yl)amino)-2-oxo-1,4-dihydropyrimido[4,5-d]pyrimidin-3(2H)-yl)benzoyl)-L-valyl)pyrrolidine-2-carboxamide] (X1-V[dP][Aib]V-NMe2)
3.57	27.1	–	–	CC1=N[C@@H](Cc2ccccc2)C(=O)Nc2cc(C(=O)Nc3ccc(C)c(N4Cc5cnc(Nc6ccc(C)nc6)nc5N(C)C4=O)c3)ccc21 [11k, (S)-3-benzyl-5-methyl-N-(4-methyl-3-(1-methyl-7-((6-methylpyridin-3-yl)amino)-2-oxo-1,4-dihydropyrimido[4,5-d]pyrimidin-3(2H)-yl)phenyl)-2-oxo-2,3-dihydro-1H-benzo[e][1,4]diazepine-8-carboxamide]
3.8	6.14	–	–	C=CCCC1=N[C@@H](CC(=O)Nc2ccc(C)c(N3Cc4cnc(Nc5ccc(C)nc5)nc4N(C)C3=O)c2)C(=O)N(C)c2ccccc21 [11p, (S)-2-(5-(but-3-en-1-yl)-1-methyl-2-oxo-2,3-dihydro-1H-benzo[e][1,4]diazepin-3-yl)-N-(4-methyl-3-(1-methyl-7-((6-methylpyridin-3-yl)amino)-2-oxo-1,4-dihydropyrimido[4,5-d]pyrimidin-3(2H)-yl)phenyl)acetamide]
27.5	658	–	–	Cc1ccc(Nc2ncc3c(n2)N(C)C(=O)N(c2cc(C(=O)N[C@H](C(=O)N4CCC[C@H]4C(=O)NC4(C(=O)N[C@@H](CC(C)C)C(=O)N(C)C)CCC4)C(C)C)ccc2C)C3)cn1 [7f, (S)-N-(1-(((S)-1-(dimethylamino)-4-methyl-1-oxopentan-2-yl)carbamoyl)cyclobutyl)-1-((4-methyl-3-(1-methyl-7-((6-methylpyridin-3-yl)amino)-2-oxo-1,4-dihydropyrimido[4,5-d]pyrimidin-3(2H)-yl)benzoyl)-L-valyl)pyrrolidine-2-carboxamide] (X1-VP[Ac4c]L-NMe2)
129	585	–	–	Cc1ccc(Nc2ncc3c(n2)N(C)C(=O)N(c2cc(C(=O)N[C@@H](Cc4ccccc4)C(=O)N4CCC[C@@H]4C(=O)N[C@H](C(=O)N[C@H](C)c4ccccc4)C(C)C)ccc2C)C3)cn1 [7w, (R)-N-((S)-3-methyl-1-oxo-1-(((R)-1-phenylethyl)amino)butan-2-yl)-1-((4-methyl-3-(1-methyl-7-((6-methylpyridin-3-yl)amino)-2-oxo-1,4-dihydropyrimido[4,5-d]pyrimidin-3(2H)-yl)benzoyl)-L-phenylalanyl)pyrrolidine-2-carboxamide]
4.63	19.6	–	–	CC1=N[C@H](Cc2ccccc2)C(=O)Nc2cc(C(=O)Nc3ccc(C)c(N4Cc5cnc(Nc6ccc(C)nc6)nc5N(C)C4=O)c3)ccc21 [11l, (R)-3-benzyl-5-methyl-N-(4-methyl-3-(1-methyl-7-((6-methylpyridin-3-yl)amino)-2-oxo-1,4-dihydropyrimido[4,5-d]pyrimidin-3(2H)-yl)phenyl)-2-oxo-2,3-dihydro-1H-benzo[e][1,4]diazepine-8-carboxamide]

SMILES	IC50 [1] [nM]	IC50 [2] [nM]	decrease of Lck/c-Src selectivity compared to 7a [1] [fold]	selectivity for Lck over c-Src [1] [fold]
Cc1ccc(Nc2ncc3c(n2)N(C)C(=O)N(c2cc(NC(=O)c4ccc5c(c4)N(C)C(=O)[C@H](CC(C)C)N=C5c4ccccc4)ccc2C)C3)cn1 [11h, (S)-3-isobutyl-1-methyl-N-(4-methyl-3-(1-methyl-7-((6-methylpyridin-3-yl)amino)-2-oxo-1,4-dihydropyrimido[4,5-d]pyrimidin-3(2H)-yl)phenyl)-2-oxo-5-phenyl-2,3-dihydro-1H-benzo[e][1,4]diazepine-8-carboxamide]	24.6	135	–	–
Cc1ccc(Nc2ncc3c(n2)N(C)C(=O)N(c2cc(NC(=O)c4ccc5c(c4)NC(=O)[C@@H](Cc4ccccc4)N=C5c4ccccc4)ccc2C)C3)cn1 [11f, (R)-3-benzyl-N-(4-methyl-3-(1-methyl-7-((6-methylpyridin-3-yl)amino)-2-oxo-1,4-dihydropyrimido[4,5-d]pyrimidin-3(2H)-yl)phenyl)-2-oxo-5-phenyl-2,3-dihydro-1H-benzo[e][1,4]diazepine-8-carboxamide]	18.7	62.6	–	–
COCCN1C(=O)[C@H](CC(C)C)N=C(c2ccccc2)c2ccc(C(=O)Nc3ccc(C)c(N4Cc5cnc(Nc6ccc(C)nc6)nc5N(C)C4=O)c3)cc21 [11n, (S)-3-isobutyl-1-(2-methoxyethyl)-N-(4-methyl-3-(1-methyl-7-((6-methylpyridin-3-yl)amino)-2-oxo-1,4-dihydropyrimido[4,5-d]pyrimidin-3(2H)-yl)phenyl)-2-oxo-5-phenyl-2,3-dihydro-1H-benzo[e][1,4]diazepine-8-carboxamide]	16	48.6	–	–
